Measured values from PubChem BioAssay AID449745 (Broad Institute, 2010).
Inconclusive results are not listed. Activity calls are given as the source filed them. The rule behind the calls is not given here.

Target: Zinc finger protein mex-5 (Caenorhabditis elegans) (UniProt Q9XUB2)
Experiment: retest of MEX-5 TCR-2 binding inhibitors, confirmation, biochemical, C. elegans, fluorescence polarization, dose retest (AID 449745);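 note: potency is for blocking Mex-5 binding to labeled TCR2 RNA like unlabeled competitor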
Settings: Mex-5 / TCR-2 RNA binding

Chain of Zinc finger protein mex-5 (Caenorhabditis elegans) (Q9XUB2 whole entry, looked up): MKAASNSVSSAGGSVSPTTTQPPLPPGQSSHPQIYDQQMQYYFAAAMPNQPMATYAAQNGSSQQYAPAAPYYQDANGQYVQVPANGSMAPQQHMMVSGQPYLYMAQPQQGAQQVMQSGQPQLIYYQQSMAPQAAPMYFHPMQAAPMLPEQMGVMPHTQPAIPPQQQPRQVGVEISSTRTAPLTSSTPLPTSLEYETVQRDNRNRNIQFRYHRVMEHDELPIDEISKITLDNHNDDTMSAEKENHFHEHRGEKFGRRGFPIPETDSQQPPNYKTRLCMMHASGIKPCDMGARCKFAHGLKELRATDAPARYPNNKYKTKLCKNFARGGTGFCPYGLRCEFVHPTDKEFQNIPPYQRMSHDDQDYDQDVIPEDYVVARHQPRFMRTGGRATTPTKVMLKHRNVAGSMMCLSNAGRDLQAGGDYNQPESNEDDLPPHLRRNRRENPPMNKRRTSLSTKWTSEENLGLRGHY

Row | SMILES | AC50
1 | CC/C(=N/Nc1cccc(C)c1)c1cnnc(SC)n1 | > 38 µM (inactive)
2 | COc1ccc(C(=O)c2c(N)sc3c2CCN(C)C3)cc1 | > 38 µM (inactive)
3 | CC(=O)Nc1ccc(S(=O)(=O)NCC(=O)NNC(=O)c2csc(N3CCOCC3)n2)cc1 | 12.7 µM
4 | Cc1ccc([C@@H]2C3COCC=C3C(C#N)=C(N)C2(C#N)C#N)o1 (stereo partly drawn) | > 38 µM (inactive)
5 | O=C(O)c1cc(-c2ccco2)nc2cc3ccccc3cc12 | > 38 µM (inactive)
6 | CN1CCN(c2ccc([N+](=O)[O-])c3no[n+]([O-])c23)CC1 | 33.4 µM
7 | Cc1cc(/C=C2\SC(=S)N(Cc3ccco3)C2=O)c(C)n1-c1ccccc1 | 16.6 µM
8 | CCn1c(C)c(C(C)=O)c(N2CCN(c3ccccc3)CC2)nc1=S | > 38 µM (inactive)
9 | O=C1CCCC(O)=C1N=Nc1ccc(C(=O)O)cc1 | 32.9 µM
10 | Nc1ccc2nc(CN3CCOCC3)[nH]c2c1 | 34.4 µM
11 | Cc1ccc(O)c(N=CC2=C(O)c3ccccc3C2=O)c1 | 24.8 µM
12 | Cc1cc(C)cc(NC(=O)N(C)Cc2ccccc2)c1 | > 38 µM (inactive)
13 | O=C1c2cccc3c(Cl)ccc(c23)C(=O)N1O | 26.2 µM
14 | NS(=O)(=O)c1ccc(-c2ccc(C=C3C(=O)NC(=S)NC3=O)o2)cc1 | 8.11 µM
15 | CCCCCCNC(=O)C(C#N)c1nc2ccccc2nc1N1CCOCC1 (stereo not drawn) | 13.3 µM
16 | CC(C)(C)C1CC=C2C(C#N)=C(N)C(C#N)(C#N)C(c3cccs3)C2C1 (stereo not drawn) | > 38 µM (inactive)
17 | O=C1NC(=O)/C(=C\c2ccc(O)cc2O)S1 | 11.5 µM
18 | CC(=Nc1ccc(C)cc1C)c1sc2ccccc2c1O | 37.2 µM
19 | COc1ccc2ccccc2c1CNCc1ccccn1 | > 38 µM (inactive)
20 | O=[N+]([O-])c1ccc(NCc2ccccc2)c2nonc12 | 0.744 µM
21 | CC(=O)OC1=C(O)C(=O)c2ccccc2C1=O | 10.3 µM
22 | CCOC(=O)c1ccc(-c2ccc(/C=C(\C#N)C(=O)NCC3CCCO3)o2)cc1 (stereo not drawn) | > 38 µM (inactive)
23 | Cc1cc(O)c(-c2cc(O)c(C)cc2O)cc1O | 6.21 µM
24 | O=C(/C=C/c1ccc(O)c(O)c1)OC1C(O)CC(OC(=O)/C=C/c2ccc(O)c(O)c2)(C(=O)O)CC1O (stereo not drawn) | 15.9 µM
25 | COc1ccc(N2C(=O)NC(=O)/C(=C\c3ccc([N+](=O)[O-])s3)C2=O)cc1 | 18.7 µM
26 | CCOC(=O)NC(=O)COC(=O)c1ccc(Sc2ncn[nH]2)c([N+](=O)[O-])c1 | 16.1 µM

Row | SMILES | AC50
27 | Cc1ccc(C(=O)O)cc1N1C(=O)c2cccc3c([N+](=O)[O-])ccc(c23)C1=O | 25.6 µM
28 | O=c1c2ccccc2nc(/C=C/c2ccc([N+](=O)[O-])o2)n1-c1ccc(O)cc1 | > 38 µM (inactive)
29 | COc1cc([N+](=O)[O-])ccc1N/C=C/C(=O)c1cccs1 | > 38 µM (inactive)
30 | CC(=O)Nc1ccc(N2C(=O)c3cccc4c(O)ccc(c34)C2=O)cc1 | 3.81 µM
31 | CC(C)N1CCc2c(sc(NC(=O)c3ccc(S(=O)(=O)N4CCCCC4C)cc3)c2C(N)=O)C1 (stereo not drawn) | > 38 µM (inactive)
32 | N=c1c(S(=O)(=O)c2ccc(Cl)cc2)cc2c(=O)n3ccccc3nc2n1CC1CCCO1 (stereo not drawn) | > 38 µM (inactive)
33 | COc1ccc(CC(=O)NNC(=O)c2cnccn2)cc1 | 15.5 µM
34 | CCOc1cc(Br)c(/C=C2/C(=O)N(C)C(=S)N2CC(=O)OC)cc1OC | > 38 µM (inactive)
35 | O=C(c1nc2ccc(Cl)cn2c1CN1CCCC1)N1CCc2ccccc2C1 | 23.7 µM
36 | NS(=O)(=O)c1ccc(N=Nc2c(=O)[nH]n3c(=O)c4c([nH]c23)CCCC4)cc1 | < 0.3 µM
37 | CC1(C)CC(=O)C2=C(C1)OC(N)=C(C#N)C2c1ccccc1[N+](=O)[O-] (stereo not drawn) | > 38 µM (inactive)
38 | CCc1cccc2cc3c(N)c(C(=O)Nc4ccc(S(=O)(=O)N5CCCC5)cc4)sc3nc12 | 8.06 µM
39 | O=c1cc[nH]c2c1ccc1c(=O)cc[nH]c12 | 25 µM
40 | O=C(CSc1ncn[nH]1)Nc1c(Br)cc([N+](=O)[O-])cc1Br | 14 µM
41 | CCCCN(C(=O)C1=COCCO1)c1c(N)n(Cc2ccccc2)c(=O)[nH]c1=O | > 38 µM (inactive)
42 | CCCCC1=CC2=C(c3ccco3)C(=O)C(C)(OC(=O)c3ccc(OC)cc3)C(=O)C2=CN1C(CO)CO (stereo not drawn) | > 38 µM (inactive)
43 | CN1CC=C2C(C#N)=C(N)C(C#N)(C#N)[C@H](c3ccoc3)[C@H]2C1 | 32.4 µM
44 | O=C(Nc1ccc(S(=O)(=O)Nc2nccs2)cc1)c1ccc(N2C(=O)c3ccccc3C2=O)cc1 | > 38 µM (inactive)
45 | CCOC(=O)C1CCN(c2nc3ccccc3nc2C(C#N)C(=O)OC(C)C)CC1 (stereo not drawn) | > 38 µM (inactive)
46 | COc1ncnc2c1N=C1CC(C)(C)CC(N)=C1S2 | 19.6 µM
47 | COc1ccc2cc(/C=C3\SC(=S)NC3=O)c(N3CCOCC3)nc2c1 | 24.1 µM
48 | CCC(C)[C@H](NC(=O)C1CC(=O)N(c2ccc3c(c2)OCO3)C1)C(=O)NC1CCCCC1 (stereo partly drawn) | 35.8 µM
49 | Oc1ccc(N=Nc2nccs2)c(O)c1 | 38.3 µM
50 | COc1cc(C=C2C(=O)c3ccccc3C2=O)cc(OC)c1OC | 28.4 µM
51 | O=C(CN1C(=O)/C(=C/c2cccc(Br)c2)SC1=S)NC1=NCCS1 | > 38 µM (inactive)
52 | Cc1cc[n+](-c2[nH]c(=O)sc2/C=N/NC([S-])=Nc2ccccc2)cc1 | 4.83 µM

Row | SMILES | AC50
53 | CCN1CCc2c(sc(N)c2C(N)=O)C1 | 37.4 µM
54 | COc1ccccc1OCC(=O)NNC(=O)c1cnccn1 | 35.3 µM
55 | CCCCOc1ccc2c(c1)/C(=C(\C(Cl)=C(Cl)Cl)[N+](=O)[O-])N2 | 14.2 µM
56 | CC1CN(c2nc3ccccc3nc2C(C#N)C(=O)NCc2ccc3c(c2)OCO3)CC(C)O1 (stereo not drawn) | 23.8 µM
57 | COC(=O)CCC(=O)OC1(C)C(=O)C2=CN(Cc3ccco3)C(c3ccc(OC)cc3)=CC2=C(Br)C1=O (stereo not drawn) | 21.1 µM
58 | CC1CCN(Cc2c(O)ccc3c2O/C(=C\c2ccco2)C3=O)CC1 | 6.87 µM
59 | Cc1cc(C)c2c(c1)NC(C(=O)O)C1CC=CC21 (stereo not drawn) | 13.3 µM
60 | O=C1CCNc2ccc(-c3ccccc3)cc21 | 4.42 µM
61 | Cc1ccc(NC(=O)/C(C#N)=C(\N)C(Cl)(Cl)Cl)nc1 | 8.19 µM
62 | CCOC(=O)C(C(=O)OCC)c1cc(Br)c2noc3c2c1C(=O)c1ccccc1-3 | < 0.3 µM
63 | O=c1[nH]c(=O)n(Cc2ccccc2)c(O)c1/C=C1\C=Nc2ccccc21 | 29.8 µM
64 | COc1ccccc1CN1CC(C(=O)NCCN(C)CCc2ccccc2)CCC1=O (stereo not drawn) | > 38 µM (inactive)
65 | Cc1[nH][nH]c(=O)c1C(c1ccc(O)c([N+](=O)[O-])c1)c1c(C)[nH][nH]c1=O | 8.52 µM
66 | NC(=S)NNc1cccc2cccnc12 | 0.987 µM
67 | CCc1nnc(NS(=O)(=O)c2ccc(N=Cc3c(O)n(-c4ccc(Cl)cc4)c(=O)[nH]c3=O)cc2)s1 | > 38 µM (inactive)
68 | Brc1ccc(C2=CC(c3cccs3)n3ncnc3N2)cc1 (stereo not drawn) | 15.8 µM
69 | CCc1cc[n+](-c2nc3ccccc3nc2[N-]S(=O)(=O)c2ccc(Br)s2)cc1 | 4.86 µM
70 | O=C(O)COc1ccccc1C(Nc1cccnc1)c1cc(Cl)c2cccnc2c1O (stereo not drawn) | 10.5 µM
71 | COc1cc(CCC(=O)Nc2ccc(Cl)c(C(F)(F)F)c2)cc(OC)c1OC | > 38 µM (inactive)
72 | Cn1c(=O)c2[nH]c(-c3ccccc3)c(O)c2n(C)c1=O | 0.895 µM
73 | Cc1ccc(/C=C2/NC(=O)N(Cc3ccccc3)C2=O)s1 | > 38 µM (inactive)
74 | CN1C(=O)C(=Cc2sc(=O)n(-c3ccccc3)c2N(C)C)C(=O)N(C)C1=O | > 38 µM (inactive)
75 | COc1ccc(C(=O)C/C(=C\C(=O)c2ccc(C)cc2)c2ccccc2)cc1 | > 38 µM (inactive)
76 | COc1ccc(N=C2S/C(=C\c3cc(C)n(C)c3C)C(=O)N2C)cc1 | > 38 µM (inactive)
77 | O=C(Nc1ccccc1F)C(=Cc1sc(N2CCOCC2)nc1-c1ccccc1)C(=O)Nc1ccccc1F | 29.4 µM
78 | CC1CC(=O)c2c(cc3c(-c4c(O)cc(O)c5c(O)c6c(cc45)OC(C)CC6=O)c(O)cc(O)c3c2O)O1 (stereo not drawn) | 2.07 µM

Row | SMILES | AC50
79 | N#CC1(C#N)C(c2ccccc2)OC23CCCCC2C1(C#N)C(=N)O3 (stereo not drawn) | > 38 µM (inactive)
80 | CCOC(=O)/C(C#N)=C/c1ccc(-c2ccsc2C(=O)OC)o1 | > 38 µM (inactive)
81 | C=C1c2cccc(O)c2C(O)=C2C(=O)[C@]3(O)C(O)=C(C(N)=O)C(=O)[C@@H](N(C)C)[C@@H]3[C@@H](O)[C@H]12 | 17.7 µM
82 | O=c1[nH]c(=S)n(-c2ccc(Cl)cc2)c(O)c1C=Nc1ccc(N2CCOCC2)cc1 | 30 µM
83 | OC(CNC1CCCC1)COc1ccccc1Br (stereo not drawn) | > 38 µM (inactive)
84 | COC/C=C/C1=CC2=CC(=O)C(C)(O)C(=O)C2=CO1 (stereo not drawn) | 13 µM
85 | CCOC(=O)c1c(NS(=O)(=O)c2ccccc2)n(CCCOC)c2nc3ccccc3nc12 | > 38 µM (inactive)
86 | CCn1c(CSc2nnc3ccccn23)nc2cc(C(=O)O)ccc21 | 33.9 µM
87 | COc1cccc(NC(=O)CSc2nc3ccccc3nc2N2CCOCC2)c1 | > 38 µM (inactive)
88 | CCOC(=O)C1=C(C)N=c2s/c(=C\c3cccn3C)c(=O)n2C1c1cccc(OC)c1OC (stereo not drawn) | 13.8 µM
89 | CC(C)(O)C(=O)NNC(=S)NCc1ccco1 | 4.16 µM
90 | CCOC(=O)c1c(/N=C/c2ccc(OC)cc2O)sc2c1CCN(C)C2 | > 38 µM (inactive)
91 | COc1cc(/C=C2/C(=O)NN(c3ccc(Cl)c(Cl)c3)C2=O)cc([N+](=O)[O-])c1O | 31.6 µM
92 | O=[N+]([O-])c1ccc(O)c(C=Nc2ccc3c(c2)OCCO3)c1 | > 38 µM (inactive)
93 | Nc1nnc(CC(=O)N/N=C/c2cc([N+](=O)[O-])cc(Br)c2O)s1 | 2.69 µM
94 | CCN(CC)c1ccc2cc(S(=O)(=O)c3ccc(C)cc3)c(=O)oc2c1 | 11.5 µM
95 | COc1ccc(N=Nc2nc3ccc(Br)cc3n2C)cc1 | 34.9 µM
96 | O=C(N/N=C/c1c(O)n(C2CC2)c(=S)[nH]c1=O)c1ccccc1O | 27.5 µM
97 | N#C/C(=C\c1cn(-c2ccccc2)nc1-c1cc2ccccc2o1)c1nc2ccccc2[nH]1 | > 38 µM (inactive)
98 | O=c1[nH][nH]c2cc(=O)n(-c3cccc(C(F)(F)F)c3)nc12 | 20.3 µM
99 | CC1C(=O)NN=C1C(=O)N/N=C\c1ccc(O)cc1O (stereo not drawn) | 10.2 µM
100 | N#C/C(=C\c1cccc([N+](=O)[O-])c1)c1nnc2n1CCCCC2 | > 38 µM (inactive)
101 | Cc1ccc(C(=O)N/N=C\c2cc(Br)c(Br)o2)cn1 | 39.7 µM
102 | O=S(=O)(O)c1cccc2c(N=Nc3ccc(O)c4ncccc34)cccc12 | 3.04 µM
103 | Cc1cccc(CS(=O)(=O)c2nnc([C@H](Cc3ccccc3)NC(=O)OC(C)(C)C)o2)c1 | > 38 µM (inactive)
